Data set [1] deals with T1, TDP1 (Homo sapiens, UniProt Q9NUW8). Also noted: method as in PMID 33221302. To be noted: earlier DCA derivatives; cited from earlier work.
The target of data set [2] is T2, TDP2 (Homo sapiens, UniProt O95551).
T2 sequence (O95551 1-362): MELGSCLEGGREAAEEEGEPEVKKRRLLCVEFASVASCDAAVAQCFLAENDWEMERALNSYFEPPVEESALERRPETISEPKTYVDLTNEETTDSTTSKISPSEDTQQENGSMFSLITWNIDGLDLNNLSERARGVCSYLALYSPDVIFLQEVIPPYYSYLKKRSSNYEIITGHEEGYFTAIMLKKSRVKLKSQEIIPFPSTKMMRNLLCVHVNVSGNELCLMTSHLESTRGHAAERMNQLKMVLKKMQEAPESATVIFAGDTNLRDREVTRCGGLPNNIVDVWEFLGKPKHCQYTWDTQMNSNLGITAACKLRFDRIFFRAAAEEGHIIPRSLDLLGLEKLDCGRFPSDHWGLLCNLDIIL
Also noted: method as in PMID 35011303. Conditions: at ~1 mM concentration; cited from earlier work.

The test system of data set [3] is HeLa cells. The experiment in a line: MTT assay, combination with topotecan or etoposide. To be noted: with 0.5 μM topotecan or 5 µM etoposide. Format: cell-based, human. How it is done: Next, the ability of the selected compounds to enhance the cytotoxic effect of topotecan and etoposide on the HeLa cell line was studied. CC50 values (50% cytotoxic concentration) were also calculated for the test compounds in the presence of topotecan or etoposide at fixed concentrations. For evaluation, three independent MTT assays were performed as described above with test substances in combination with topotecan at a final concentration of 0.5 μM and etoposide at a final concentration of 5 μM per well.
Figure 2 The combined action of compounds 3d–e and 4d–e with 0.5 μM topotecan (Tpc, (A)) and 5 µM etoposide (Eto, (B)) on the survival of HeLa cells. The error bars show standard deviations.
A general note: Tetrazolium assays rely on reduction of a dye to a coloured formazan, in cell work by metabolically active cells.

Data set [4] concerns HeLa cells. To be noted: human, 72 h.
Protocol: (§1) Topotecan (TOP1 inhibitor) and etoposide (TOP2 inhibitor) were used to study the effect combined with DCA derivatives on the metabolic activity of cells. […] Topotecan (0.5 µM) and etoposide (5 µM) were used at a concentration with low toxicity (>70% of living cells), selected based on preliminary experiments.
(§2) The cells were seeded in 96-well plates in quadruplicates at 3 × 10^3 cells/well. The cells were grown in Dulbecco’s Modified Eagle—Medium (DMEM) (AppliChem, Darmstadt, Germany) with Antibiotic-Antimycotic (100 IU/mL penicillin, 0.1 μg/mL streptomycin, 0.25 µg/mL amphotericin) (1×) (Gibco, Grand Island, NE, USA) and 10% of fetal bovine serum (Gibco, Grand Island, NE, USA) in a 5% CO2 atmosphere at 37 °C. After the formation of a 50% monolayer, tested compounds were added to the medium, and the cell culture was monitored for 72 h at 37 °C. DCA derivatives were dissolved in 100% DMSO and topotecan/etoposide in water. Control cells were grown in the presence of the same volume of DMSO, those cells with the investigated compound. […] (MTT) solution (10 μL, 5 mg/mL) were added to each well and the cells were incubated for an additional 2 h. Then, the medium was removed from the wells, and 100 μL of iso-propanol was added to dissolve blue formazan crystals formed within live cells; the optical density was measured at test and reference wavelengths (570 nm and 620 nm, respectively) using CLARIOstar fluorimeter (BMG LABTECH, GmbH, Ortenberg, Germany). The experiments were repeated at least three times.
The target in data set [5] is T1, TDP1. The experiment in a line: TDP1 activity, real-time fluorescence oligonucleotide biosensor (FAM/BHQ1). Conditions: 1.5 nM TDP1, 50 nM biosensor. Format: biochemical. An excerpt: To detect TDP1 activity in real time, we used an oligonucleotide biosensor based on the ability of TDP1 to remove fluorophore quenchers from the 3’ end of DNA [29]. The hexadecamer oligonucleotide carried 5(6)-carboxyfluorescein (FAM) at the 5’ end as a fluorophore and Black Hole Quencher-1 (BHQ1) at the 3’ end as a fluorophore quencher. TDP1 inhibitors prevent the removal of fluorophore quenchers, resulting in a decrease in fluorescence intensity.
TDP1 activity was detected as described in [31]. We measured the fluorescence intensity after quencher cleavage via a fluorophore quencher–coupled DNA oligonucleotide […]. The reaction mixtures contained TDP1 buffer (50 mM Tris, HCl pH 8.0, 50 mM NaCl, and 7 mM β-mercaptoethanol), 50 nM biosensor, and different concentrations of inhibitors. The reaction was triggered by adding TDP1 to a final concentration of 1.5 nM. The fluorophore quencher–coupled DNA oligonucleotide was synthesized in the Laboratory of Nucleic Acid Chemistry at the Institute of Chemical Biology and Fundamental Medicine (Novosibirsk, Russia).
The reaction mixtures were incubated at room temperature in a 96-well plate, and fluorescence was measured using the POLARstar OPTIMA fluorimeter (BMG LABTECH, GmbH, Ortenberg, Germany) every 55 s during the linear phase (here, data from minute 0 to minute 8). […] Data calculation was carried out using the software MARS Data Analysis 2.0 (BMG LABTECH, Ortenberg, Germany).

The nature of data set [6]: in vitro. Conditions: human, HeLa CC50.
Protocol: as §1, §2
Data set [7] concerns the target T2, TDP2. The experiment in a line: Gel-based TDP2 activity assay (removal of 5'-tyrosine, PAGE). Format: biochemical. To be noted: for remaining activity at 500 µM: read-out: TDP2, % (residual activity of TDP2); for IC50: 200 nM TDP2, 100 nM substrate, 15 min 37 °C. How it is done: We investigated the activity against the TDP2 enzyme of compounds 3d–f and 4a–e at 500 μM (Table 1). The basis for testing TDP 2 was its ability to remove a tyrosine residue from the 5’ end of an oligonucleotide substrate. The TDP2 reaction products were separated in a polyacrylamide gel (PAGE) with formamide denaturation.
TDP2 activity was detected as described in [42]. We separated the products of the reaction of cleavage of the tyrosine residue from the 5′-end of the 3e FAM-labeled oligonucleotide in a polyacrylamide gel under denaturing conditions. […] The reaction mixtures contained TDP1 buffer ([…] Tris-HCl pH 8.0, 40 mM NaCl, 1 mM DTT, 0.05 mg/mL BSA (Sigma-Aldrich, St. Luis, MO, USA)), 100 nM oligonucleotide substrate, and inhibitors. The reaction was triggered by adding TDP2 to a final concentration of 200 nM.
The reaction mixtures were incubated for 15 min at 37 °C. The reaction products were analyzed using Typhoon FLA 9500 phosphorimager (GE Healthcare, Boston, MA, USA). Each experiment was carried out in three independent replicates. The data were analyzed with QuantityOne 4.6.7 software.

The subject of data set [8] is HeLa cells. Briefly: MTT cytotoxicity/antiproliferative assay. Conditions: low-toxicity concentration, preliminary experiments.
Protocol: as §1, §2
Data set [9] in a line: MTT cytotoxicity/antiproliferative assay. Conditions: human, HeLa cells, HeLa CC50, 72 h of treatment, MTT assay.
Protocol: as §1, §2

The values below come from PMC10856758, “New Dual Inhibitors of Tyrosyl-DNA Phosphodiesterase 1 and 2 Based on Deoxycholic Acid: Design, Synthesis, Cytotoxicity, and Molecular Modeling” (Molecules, 2024).

Read-outs that look alike come from different tables or passages of the source.

T1 sequence (Q9NUW8 whole entry): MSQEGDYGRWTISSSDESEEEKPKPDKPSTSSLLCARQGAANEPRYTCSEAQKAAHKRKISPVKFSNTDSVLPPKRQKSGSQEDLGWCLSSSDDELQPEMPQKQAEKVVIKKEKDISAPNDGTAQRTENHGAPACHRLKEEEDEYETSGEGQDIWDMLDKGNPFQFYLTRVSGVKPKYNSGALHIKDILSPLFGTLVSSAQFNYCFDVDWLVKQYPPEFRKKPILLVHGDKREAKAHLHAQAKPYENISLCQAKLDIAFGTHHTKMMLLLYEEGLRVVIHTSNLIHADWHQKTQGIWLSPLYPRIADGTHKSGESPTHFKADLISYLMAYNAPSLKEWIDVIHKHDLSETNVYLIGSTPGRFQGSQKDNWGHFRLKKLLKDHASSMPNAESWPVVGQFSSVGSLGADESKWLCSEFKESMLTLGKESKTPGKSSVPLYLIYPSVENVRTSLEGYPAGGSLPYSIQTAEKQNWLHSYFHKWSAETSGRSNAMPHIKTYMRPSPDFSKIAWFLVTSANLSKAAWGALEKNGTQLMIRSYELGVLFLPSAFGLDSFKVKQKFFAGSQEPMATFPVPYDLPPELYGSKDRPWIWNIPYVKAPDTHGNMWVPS

The term IC50 denotes the concentration that inhibits the measured activity by half. In the case of `CC(CCC(=O)NCCc1c[nH]c2ccccc12)C1CCC2C3CCC4CC(OCc5ccccc5)CCC4(C)C3CC(O)C12C` (stereo not drawn) [3α-benzyloxy deoxycholic tryptamide], in [1], the concentration for half-maximal inhibition (IC50) is 0.24 µM and the “TDP1 IC50” value was “submicromolar range”. Further, the TDP2 residual activity result in data set [2] is on record as “less than 50%”.
For orientation: melting point means the temperature of the solid-liquid transition. As for `COC(=O)CCC(C)C1CCC2C3CCC4CC(O)(CSc5nc6ccccc6s5)CCC4(C)C3CC(O)C12C` (stereo not shown) [4e], the melting point is 74.5 °C (dec.). The “combined cytotoxic effect / cell survival under drug combinations” value in [3] is “most noticeable combined cytotoxic effect with both topotecan and etoposide”. This compound showed a CC50 in [4] of more than 100 µM. For the same compound, the half-inhibitory concentration (IC50) in [5] stood at 0.63 ± 0.03 µM. The CC50 at 72 h in data set [6] was more than 75 µM. Moreover, in data set [7] (at 500 µM compound), the remaining activity at 500 µM is approximately 49%.
With `CC(CCC(=O)O)C1CCC2C3CCC4CC(O)(CSc5nc6ccccc6s5)CCC4(C)C3CC(O)C12C` (stereo not shown) [3e], the melting point was 106.2 °C (dec.). The compound further yielded an IC50 in data set [5] of 14 ± 2 µM. The CC50 at 72 h in data set [6] was 75 ± 13 µM. The compound further showed an IC50 in data set [7] of 76 ± 13 µM. In addition, the remaining activity at 500 µM in data set [7] (at 500 µM compound) was approximately 2%.
For the compound `COc1cc([C@@H]2c3cc4c(cc3[C@@H](O[C@@H]3O[C@@H]5CO[C@@H](C)O[C@H]5[C@H](O)[C@H]3O)[C@H]3COC(=O)[C@H]23)OCO4)cc(OC)c1O` [Etoposide], the living cells in [8] (etoposide alone at 5 µM) is more than 70%. In data set [9], this compound had a CC50 at 72 h of 6.2 ± 0.6 µM.
For `Cc1ccc2[nH]c(SCC3(O)CCC4(C)C(CCC5C4CC(O)C4(C)C(C(C)CCC(=O)O)CCC54)C3)nc2c1` (stereo not shown) [3d], the melting point is 188.9 °C (dec.). For the same compound, in [5], the midpoint of inhibition, the IC50, lay at 25 ± 4 µM. This compound displayed a CC50 at 72 h in data set [6] of 63 ± 6 µM. This compound also came in with an IC50 in data set [7] of 250 ± 30 µM. For the same compound, the “TDP2, % (residual activity of TDP2)” value in [7] (at 500 µM compound, 500 µM) is on record as 24 ± 5%. For the same compound, the remaining activity at 500 µM in data set [7] (at 500 µM compound) is approximately 25%.
Turning to `CC(CCC(=O)O)C1CCC2C3CCC4CC(O)(CSc5ccncc5)CCC4(C)C3CC(O)C12C` (stereo not drawn) [3a, 3β,12α-Dihydroxy-3α-((pyrydin-4-ylthio)methyl)-5β-cholan-24-oic Acid], the melting point was 119.6 °C (dec.). The compound further showed an IC50 in data set [5] of 22 ± 2 µM. The remaining activity at 500 µM in [7] (at 500 µM compound) was found to be 92 ± 3%.
Turning to `CC[C@@]1(O)C(=O)OCc2c1cc1n(c2=O)Cc2cc3c(CN(C)C)c(O)ccc3nc2-1` [Topotecan], the living cells in [8] (topotecan alone at 0.5 µM) was more than 70%. In [9], this compound returned a CC50 at 72 h of 0.9 ± 0.1 µM.
As for `COC(=O)CCC(C)C1CCC2C3CCC4CC(O)(CSc5nc6ccccc6o5)CCC4(C)C3CC(O)C12C` (stereo not shown) [4f], the melting point was 75 °C (dec.). In [5], this compound had a half-inhibitory concentration (IC50) of 1.8 ± 0.5 µM. In addition, the remaining activity at 500 µM in data set [7] (at 500 µM compound) is not below 100%.
Consider `COC1CCC2(C)C(CCC3C2CC(OC)C2(C)C(C(C)CCC(=O)Nc4ccc(Br)cc4)CCC32)C1` (stereo not drawn) [3α,12α-bis-methoxy deoxycholic para-bromoanilide], for which, in data set [1], the IC50 was 0.27 µM and the “TDP1 IC50” value is given as “submicromolar range”.
On to `COC(=O)CCC(C)C1CCC2C3CCC4CC(O)(CSc5nc6cc(C)ccc6[nH]5)CCC4(C)C3CC(O)C12C` (stereo not shown) [4d], for which the melting point was 112.1 °C (dec.). The IC50 in [5] is 0.94 ± 0.04 µM. The CC50 at 72 h in [6] was found to be 50 ± 13 µM. Further, in [7], half-maximal inhibition (IC50) was put at 218 ± 7 µM. The remaining activity at 500 µM in data set [7] (at 500 µM compound) was approximately 14%.
On to `CC(CCC(=O)O)C1CCC2C3CCC4CC(O)(CSc5nccn5C)CCC4(C)C3CC(O)C12C` (stereo not drawn) [3b, 3β,12α-Dihydroxy-3α-((1-methyl-1H-imidazol-2-ylthio)methyl)-5β-cholan-24-oic Acid], for which the melting point is 119.9 °C (dec.). The half-inhibitory concentration (IC50) in data set [5] came to 30 ± 7 µM. Moreover, the remaining activity at 500 µM in data set [7] (at 500 µM compound) was not below 100%.
In the same order, the values of `CC(CCC(=O)O)C1CCC2C3CCC4CC(O)(CSc5nc[nH]n5)CCC4(C)C3CC(O)C12C` (stereo not drawn) [3c, 3β,12α-Dihydroxy-3α-((1H-1,2,4-triazol-5-ylthio)methyl)-5β-cholan-24-oic Acid] are 95.1 to 98.4 °C, 32 ± 4 µM and not below 100%.
